Measured values from the CheMixHub viscosity set.

Test: xn = mol fraction of the nth substance listed

CCCOCCO + CO
298.15 K, 101.33 kPa
Conditions	viscosity [mPa·s]
x1 = 0.0024	0.553
x1 = 0.0177	0.581
x1 = 0.041	0.62
x1 = 0.0504	0.644
x1 = 0.0697	0.673
x1 = 0.0903	0.729
x1 = 0.1252	0.801
x1 = 0.159	0.865
x1 = 0.1826	0.914
x1 = 0.2208	0.989
x1 = 0.2613	1.084
x1 = 0.2874	1.149
x1 = 0.3049	1.199
x1 = 0.341	1.284
x1 = 0.3895	1.394
x1 = 0.4426	1.499
x1 = 0.4816	1.577
x1 = 0.5329	1.68
x1 = 0.5596	1.737
x1 = 0.6366	1.878
x1 = 0.6677	1.927
x1 = 0.7153	2.014
x1 = 0.7701	2.115
x1 = 0.8053	2.16
x1 = 0.8437	2.194
x1 = 0.8812	2.248
x1 = 0.9415	2.323
x2 = 0.0116	2.347

CCCCn1cc[n+](C)c1.[Cl-] + CCO
viscosity [mPa·s], 101 kPa
Conditions	293.15 K	303.15 K	308.15 K
x2 = 0.4991	75.1	–	–
x2 = 0.7003	–	9.24	8.17

CCCOCCO + O=[N+]([O-])c1ccccc1
298.15 K, 101 kPa
Conditions	viscosity [mPa·s]
x2 = 0.0509	2.336
x2 = 0.1085	2.326
x2 = 0.2052	2.316
x2 = 0.3224	2.304
x2 = 0.3978	2.292
x2 = 0.4501	2.279
x2 = 0.5017	2.262
x2 = 0.5513	2.241
x2 = 0.6026	2.216
x2 = 0.6998	2.154
x2 = 0.8045	2.066
x2 = 0.9028	1.957
x2 = 0.9525	1.888

CCC(=O)OC + ClC(Cl)C(Cl)Cl
viscosity [mPa·s], 101.3 kPa
Conditions	308.15 K	318.15 K
x1 = 0.0501	1.352	1.214
x1 = 0.1021	1.296	1.149
x1 = 0.2031	1.186	1.032
x1 = 0.302	1.078	0.927
x1 = 0.3398	1.037	0.889
x1 = 0.5038	0.865	0.741
x1 = 0.6012	0.769	0.664
x1 = 0.6946	0.681	0.597
x1 = 0.7988	0.591	0.528
x1 = 0.9016	0.509	0.468
x1 = 0.9481	0.474	0.443

N#Cc1ccccc1 + COC(C)(C)C
viscosity [mPa·s], 101.33 kPa
Conditions	x2 = 0.1048	x2 = 0.2024	x2 = 0.3015	x2 = 0.3969	x2 = 0.4912	x2 = 0.6055	x2 = 0.7115	x2 = 0.7995	x2 = 0.905
293.15 K	1.277	1.18	1.081	0.9863	0.8924	0.7787	0.6732	0.5856	0.4806
298.15 K	1.185	1.096	1.006	0.9189	0.8329	0.7286	0.6319	0.5516	0.4554

CCCOCCO + O=C1CCCN1
298.15 K, 101 kPa
Conditions	viscosity [mPa·s]
x1 = 0.0058	13.97
x1 = 0.015	13.55
x1 = 0.035	12.83
x1 = 0.0681	11.7
x1 = 0.1013	10.72
x1 = 0.1517	9.453
x1 = 0.2214	8.048
x1 = 0.2526	7.522
x1 = 0.3008	6.831
x1 = 0.3725	5.947
x1 = 0.3786	5.895
x1 = 0.4257	5.419
x1 = 0.4698	5.028
x1 = 0.5219	4.651
x1 = 0.5519	4.44
x1 = 0.6236	3.983
x1 = 0.6987	3.576
x1 = 0.7597	3.317
x1 = 0.8327	2.977
x1 = 0.8764	2.801
x1 = 0.9045	2.695
x1 = 0.9327	2.592
x1 = 0.9694	2.473
x2 = 0.0135	2.409

CC[N+](CC)(CC)CC.[I-] + O
viscosity [mPa·s], 101 kPa
Conditions	x1 = 0.0005	x1 = 0.0009	x1 = 0.0018	x1 = 0.0027	x1 = 0.0036
293.15 K	1.004	1.018	1.037	1.051	1.074
298.15 K	0.893	0.902	0.916	0.931	0.943
303.15 K	0.826	0.835	0.846	0.859	0.872
308.15 K	0.697	0.703	0.713	0.723	0.733

NCCOCCOCCN.O=S(=O)([N-]S(=O)(=O)C(F)(F)F)C(F)(F)F.[Li+] + O
323.15 K, 101 kPa
Conditions	viscosity [mPa·s]
x1 = 0.0299	1.86
x1 = 0.0598	4.12
x1 = 0.1028	8.92
x1 = 0.1994	22.16
x1 = 0.2969	37.12
x1 = 0.3942	52.68
x1 = 0.4958	66.7
x1 = 0.6022	79.33
x1 = 0.6956	89.08
x1 = 0.8777	103.8

CCCCn1cc[n+](C)c1.[Cl-] + CN(C)C=O
101 kPa
Conditions	viscosity [mPa·s]
293.15 K, x2 = 0.5025	76.7
293.15 K, x2 = 0.9	3.41
298.15 K, x2 = 0.501	64.4
303.15 K, x2 = 0.7005	9.55
308.15 K, x1 = 0.1056	1.665
308.15 K, x1 = 0.1399	2.135
308.15 K, x2 = 0.7	7.76

CC(C)C(C)C + CCCCCCCCCCCC
298 K, 101.33 kPa
Conditions	viscosity [mPa·s]
x1 = 0.101	1.237
x1 = 0.2039	1.127
x1 = 0.297	1.018
x1 = 0.4013	0.898
x1 = 0.4985	0.7936
x1 = 0.6035	0.6871
x1 = 0.7426	0.5433
x1 = 0.8116	0.4795
x1 = 0.9014	0.4023

C1CC[C@H]2CCCC[C@@H]2C1 + O=C1CCCCC1
viscosity [mPa·s], 101.3 kPa
Conditions	293.15 K	303.15 K
x2 = 0.05	2.114	1.758
x2 = 0.15	2.103	1.744
x2 = 0.2415	2.105	1.737
x2 = 0.3447	2.119	1.737
x2 = 0.4511	2.147	1.744
x2 = 0.5088	2.168	1.75
x2 = 0.6731	2.253	1.784
x2 = 0.6779	2.256	1.785
x2 = 0.7761	2.326	1.815
x2 = 0.8609	2.397	1.848
x2 = 0.9315	2.466	1.88

CCC(=O)OC + C1CCCCC1
viscosity [mPa·s], 101 kPa
Conditions	298.15 K	308.15 K
x1 = 0.0565	0.827	0.699
x1 = 0.1524	0.742	0.621
x1 = 0.2574	0.67	0.556
x1 = 0.3378	0.626	0.517
x1 = 0.4555	0.578	0.475
x1 = 0.4981	0.565	0.463
x1 = 0.5542	0.55	0.45
x1 = 0.6536	0.532	0.434
x1 = 0.7514	0.522	0.426
x1 = 0.8265	0.519	0.424
x1 = 0.9564	0.526	0.432

N[C@@H](Cc1ccc(O)cc1)C(=O)O + O
303 K, 100 kPa
Conditions	viscosity [mPa·s]
x1 = 0.00933	0.8931
x1 = 0.00952	0.911
x1 = 0.00967	0.9501
x1 = 0.00975	0.9616
x1 = 0.0098	0.9874
x1 = 0.00983	1

Nc1cccc2ccccc12 + CCO
viscosity [mPa·s], 101 kPa
Conditions	x1 = 0.0225	x1 = 0.04399	x1 = 0.08427	x1 = 0.1213	x1 = 0.1554	x1 = 0.187	x1 = 0.2163
293.15 K	1.348	1.454	1.7	1.987	2.308	2.667	3.025
303.15 K	1.094	1.176	1.362	1.56	1.786	2.029	2.27
313.15 K	0.903	0.966	1.104	1.251	1.41	1.587	1.759
323.15 K	0.745	0.791	0.899	1.006	1.121	1.254	1.377

C[C@H]1CCCC[C@H]1O + C[C@@H]1CCCC[C@H]1O
viscosity [mPa·s], 101 kPa
Conditions	x1 = 0.199	x1 = 0.302	x1 = 0.399	x1 = 0.598	x1 = 0.691	x1 = 0.798
298.15 K	29.88	27.1	24.51	20.97	19.75	18.87
303.15 K	20.72	19.03	17.37	15.25	14.51	13.97

N#Cc1ccccc1 + CCCCO
viscosity [mPa·s], 101.33 kPa
Conditions	x1 = 0.033	x1 = 0.1519	x1 = 0.2155	x1 = 0.3392	x1 = 0.4092	x1 = 0.504	x1 = 0.6218	x1 = 0.7894	x1 = 0.9629
303.15 K	2.094	1.716	1.583	1.382	1.3	1.213	1.149	1.108	1.119
308.15 K	1.844	1.534	1.414	1.245	1.186	1.108	1.053	1.021	1.04
313.15 K	1.66	1.378	1.281	1.14	1.08	1.02	0.976	0.945	0.978

N#Cc1ccccc1 + OCc1ccccc1
303.15 K, 101 kPa
Conditions	viscosity [mPa·s]
x2 = 0.146	1.123
x2 = 0.276	1.263
x2 = 0.3251	1.366
x2 = 0.4147	1.535
x2 = 0.5549	1.902
x2 = 0.6387	2.184
x2 = 0.7443	2.635
x2 = 0.8022	2.942
x2 = 0.9039	3.595

N#Cc1ccccc1 + CCCO
viscosity [mPa·s], 101.33 kPa
Conditions	x1 = 0.1072	x1 = 0.2174	x1 = 0.2995	x1 = 0.4082	x1 = 0.5248	x1 = 0.5951	x1 = 0.6992	x1 = 0.7547	x1 = 0.9108
303.15 K	1.447	1.31	1.222	1.138	1.096	1.079	1.066	1.071	1.094
308.15 K	1.308	1.19	1.113	1.037	1.006	0.994	0.986	0.991	1.018
313.15 K	1.187	1.082	1.017	0.955	0.93	0.918	0.913	0.919	0.951
